Data published in US20080267942A1, “BENZAZEPIN-2(1H)-ONE DERIVATIVES” (Pfizer Limited, priority 2006, published 2008).
pEC50: −log10 of the molar value. Counter-ions that a name gives are not always drawn.

Legend:
[1] = molecular target: T1, porcine beta-2 adrenoceptor (Sus scrofa, UniProt Q28997); test: cAMP assay in CHO cells transfected with the porcine beta-2 adrenoceptor (DiscoveRx Hit Hunter cAMP II); assay type: cell-based; details: CHO cells transfected with porcine beta-2 adrenoceptor, 30 minutes incubation with compound
T1 construct: expressed in transfected cells; host or cells: CHO cells
Protocol: (§1) CHO cells transfected with the bovine or porcine beta-2 adrenceptors were maintained in culture in DMEM/HAMS F12+10% FBS+2 mM glutamine+500 μg/ml geneticin (for the porcine receptor the medium was supplement with 1.5 mM HEPES) at 37° C. with a 5% CO2 atmosphere.
(§2) Cells were plated into 96 well viewplates in medium and incubated overnight at 37° C. with a 5% CO2 atmosphere. The cells were pre-incubated with 0.5 mM IBMX in PBS for 30 minutes prior to incubation with increasing concentrations of experimental compound (5×10^−12 to 10^−5M) for 30 minutes at 37° C. with a 5% CO2 atmosphere. At the end of the incubation time the compound was removed and the cells assayed for cAMP using the DiscoveRx Hit Hunter cAMP II™ assay kit.
(§3) Duplicate samples were run for each experimental compound and the data generated was analysed using EC50 analysis software in Graphpad Prism.

[2] = molecular target: T2, bovine beta-2 adrenoceptor (Bos taurus, UniProt Q28044); test: cAMP assay in CHO cells transfected with the bovine beta-2 adrenoceptor (DiscoveRx Hit Hunter cAMP II); assay type: cell-based; details: CHO cells transfected with bovine beta-2 adrenoceptor, 30 minutes incubation with compound
T2 construct: expressed in transfected cells; host or cells: CHO cells
Protocol: as §1, §2, §3

T2 sequence (Q28044 whole entry): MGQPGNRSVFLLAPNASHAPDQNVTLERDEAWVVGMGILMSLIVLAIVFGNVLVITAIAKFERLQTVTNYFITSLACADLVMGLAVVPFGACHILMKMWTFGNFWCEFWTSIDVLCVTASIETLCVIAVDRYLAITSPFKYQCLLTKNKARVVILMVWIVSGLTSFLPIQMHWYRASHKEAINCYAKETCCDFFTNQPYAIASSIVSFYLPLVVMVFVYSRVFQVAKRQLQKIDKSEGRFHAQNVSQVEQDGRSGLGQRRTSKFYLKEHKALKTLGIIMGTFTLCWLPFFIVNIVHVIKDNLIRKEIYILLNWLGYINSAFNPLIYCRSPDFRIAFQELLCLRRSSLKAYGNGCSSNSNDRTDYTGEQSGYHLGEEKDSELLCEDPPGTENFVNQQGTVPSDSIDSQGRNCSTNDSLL
T1 sequence (Q28997 whole entry): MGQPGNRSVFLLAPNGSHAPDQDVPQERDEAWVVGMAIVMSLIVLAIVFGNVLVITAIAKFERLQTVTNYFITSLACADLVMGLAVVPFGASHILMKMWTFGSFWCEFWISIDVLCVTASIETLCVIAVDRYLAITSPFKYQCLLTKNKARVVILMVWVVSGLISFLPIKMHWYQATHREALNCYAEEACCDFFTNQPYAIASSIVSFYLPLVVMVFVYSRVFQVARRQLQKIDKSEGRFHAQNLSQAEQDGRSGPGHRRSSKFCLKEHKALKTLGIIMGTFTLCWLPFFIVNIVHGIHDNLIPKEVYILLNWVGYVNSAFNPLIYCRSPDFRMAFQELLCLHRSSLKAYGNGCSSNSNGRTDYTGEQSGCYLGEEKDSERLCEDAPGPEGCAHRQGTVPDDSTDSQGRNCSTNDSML

## CC(CCc1cc(F)cc2cc[nH]c12)N[C@@H]1CCn2c(=O)[nH]c3cccc(c32)[C@H]1O (mixture of isomers) [Example 1a, 6-{[3-(5-Fluoro-1H-indol-7-yl)-1-methylpropyl]amino}-7-hydroxy-4,5,6,7-tetrahydroimidazo[4,5,1-jk][1]benzazepin-2(1H)-one]
[1]
  pEC50: 8.85
[2]
  pEC50: 9.30

## CC(CCc1cc(F)cc2cc[nH]c12)N[C@@H]1CCn2c(=O)[nH]c3cccc(c32)[C@H]1O (mixture of isomers) [Example 1b, 6-{[3-(5-Fluoro-1H-indol-7-yl)-1-methylpropyl]amino}-7-hydroxy-4,5,6,7-tetrahydroimidazo[4,5,1-jk][1]benzazepin-2(1H)-one]
[1]
  pEC50: 9.00
[2]
  pEC50: 9.15

## CC(CCc1ccc(C(=O)O)o1)N[C@@H]1CCn2c(=O)[nH]c3cccc(c32)[C@H]1O (mixture of isomers) [Example 2, 5-(3-{[7-Hydroxy-2-oxo-1,2,4,5,6,7-hexahydroimidazo[4,5,1-jk][1]benzazepin-6-yl]amino}butyl)-2-furoic acid]
[1]
  pEC50: 7.51
[2]
  pEC50: 6.77

## Cc1[nH]c2ccccc2c1CCC(C)N[C@@H]1CCn2c(=O)[nH]c3cccc(c32)[C@H]1O (mixture of isomers) [Example 3b, 7-Hydroxy-6-{[1-methyl-3-(2-methyl-1H-indol-3-yl)propyl]amino}-4,5,6,7-tetrahydroimidazo[4,5,1-jk][1]benzazepin-2(1H)-one]
[1]
  pEC50: 8.52
[2]
  pEC50: 8.26

## C[C@@H](CCc1c[nH]c2ccccc12)N[C@@H]1CCn2c(=O)[nH]c3cccc(c32)[C@H]1O (racemic) [Example 4c, 7-Hydroxy-6-{[3-(1H-indol-3-yl)-1-methylpropyl]amino}-4,5,6,7-tetrahydroimidazo[4,5,1-jk][1]benzazepin-2(1H)-one]
[1]
  pEC50: 6.84
[2]
  pEC50: 6.99

## CC(CCc1c[nH]c2ccc(F)cc12)N[C@@H]1CCn2c(=O)[nH]c3cccc(c32)[C@H]1O (mixture of isomers) [Example 5b, Hydrochloride salt of 6-{[3-[5-Fluoro-1H-indol-3-yl]-1-methylpropyl]amino}-7-hydroxy-4,5,6,7-tetrahydroimidazo[4,5,1-jk][1]benzazepin-2(1)-one]
[1]
  pEC50: 8.60
[2]
  pEC50: 8.96

## CC(CCc1cccc(=O)[nH]1)N[C@@H]1CCn2c(=O)[nH]c3cccc(c32)[C@H]1O (mixture of isomers) [Example 7a, 7-Hydroxy-6-{[1-methyl-3-(6-oxo-1,6-dihydropyridin-2-yl)propyl]amino}-4,5,6,7-tetrahydroimidazo[4,5,1-jk][1]benzazepin-2(1H)-one]
[1]
  pEC50: 8.26
[2]
  pEC50: 8.34

## CC(CCc1cccc(=O)[nH]1)N[C@@H]1CCn2c(=O)[nH]c3cccc(c32)[C@H]1O (mixture of isomers) [Example 7c, 7-Hydroxy-6-{[1-methyl-3-(6-oxo-1,6-dihydropyridin-2-yl)propyl]amino}-4,5,6,7-tetrahydroimidazo[4,5,1-jk][1]benzazepin-2(1H)-one]
[2]
  pEC50: 8.42

## CC(CC(C)(C)c1c[nH]c2ccccc12)N[C@@H]1CCn2c(=O)[nH]c3cccc(c32)[C@H]1O (mixture of isomers) [Example 8, 7-Hydroxy-6-{[3-(1H-indol-3-yl)-1,3-dimethylbutyl]amino}-4,5,6,7-tetrahydroimidazo[4,5,1-jk][1]benzazepin-2(1H)-one]
[1]
  pEC50: 8.21
[2]
  pEC50: 6.94

## CC(CCc1cn(C)c2ccccc12)N[C@@H]1CCn2c(=O)[nH]c3cccc(c32)[C@H]1O (mixture of isomers) [Example 14b, 7-Hydroxy-6-{[1-methyl-3-(1-methyl-1H-indol-3-yl)propyl]amino}-4,5,6,7-tetrahydroimidazo[4,5,1-jk][1]benzazepin-2(1H)-one]
[1]
  pEC50: 8.24
[2]
  pEC50: 8.10

## CC(CCc1cn(C)c2ccccc12)N[C@@H]1CCn2c(=O)[nH]c3cccc(c32)[C@H]1O (mixture of isomers) [Example 14c, 7-Hydroxy-6-{[1-methyl-3-(1-methyl-1H-indol-3-yl)propyl]amino}-4,5,6,7-tetrahydroimidazo[4,5,1-jk][1]benzazepin-2(1H)-one]
[1]
  pEC50: 8.38
[2]
  pEC50: 8.26

## CC(CCc1c[nH]c2ccc(OCc3ccccc3)cc12)N[C@@H]1CCn2c(=O)[nH]c3cccc(c32)[C@H]1O (mixture of isomers) [Example 17, 6-({3-[5-(Benzyloxy)-1H-indol-3-yl]-1-methylpropyl}amino)-7-hydroxy-4,5,6,7-tetrahydroimidazo[4,5,1-jk][1]benzazepin-2(1H)-one]
[1]
  pEC50: 7.48
[2]
  pEC50: 7.60

## CC(CCc1cn(Cc2ccccc2)c2ccccc12)N[C@@H]1CCn2c(=O)[nH]c3cccc(c32)[C@H]1O (mixture of isomers) [Example 18, 6-{[3-(1-Benzyl-1H-indol-3-yl)-1-methylpropyl]amino}-7-hydroxy-4,5,6,7-tetrahydroimidazo[4,5,1-jk][1]benzazepin-2(1H)-one]
[1]
  pEC50: 7.01
[2]
  pEC50: 6.66

## CC(CC(C)(C)c1cn(C)c2ccccc12)N[C@@H]1CCn2c(=O)[nH]c3cccc(c32)[C@H]1O (mixture of isomers) [Example 20, 6-{[1,3-Dimethyl-3-(1-methyl-1H-indol-3-yl)butyl]amino}-7-hydroxy-4,5,6,7-tetrahydroimidazo[4,5,1-jk][1]benzazepin-2(1H)-one]
[1]
  pEC50: 7.44
[2]
  pEC50: 6.80

## CC(CCn1cnc2cc(F)cc(F)c21)N[C@@H]1CCn2c(=O)[nH]c3cccc(c32)[C@H]1O (single isomer, unassigned) [Example 69]
[1]
  pEC50: 9.40

## Cc1nnsc1CCC(C)N[C@@H]1CCn2c(=O)[nH]c3cccc(c32)[C@H]1O (single isomer, unassigned) [Example 70]
[1]
  pEC50: 8.48

## CC(CCn1cnnc1)N[C@@H]1CCn2c(=O)[nH]c3cccc(c32)[C@H]1O (single isomer, unassigned) [Example 71]
[1]
  pEC50: 7.82

## CC(CCc1cncnc1)N[C@@H]1CCn2c(=O)[nH]c3cccc(c32)[C@H]1O (single isomer, unassigned) [Example 72]
[1]
  pEC50: 8.57

## COc1cncc(CCC(C)N[C@@H]2CCn3c(=O)[nH]c4cccc(c43)[C@H]2O)c1 (single isomer, unassigned) [Example 73]
[1]
  pEC50: 9.10

## CC(CCc1cnc(O)s1)N[C@@H]1CCn2c(=O)[nH]c3cccc(c32)[C@H]1O (single isomer, unassigned) [Example 74]
[1]
  pEC50: 8.33

## CC(CCn1nnc2ccccc21)N[C@@H]1CCn2c(=O)[nH]c3cccc(c32)[C@H]1O (single isomer, unassigned) [Example 75]
[1]
  pEC50: 8.33

## CC(CCn1cnc2cnccc21)N[C@@H]1CCn2c(=O)[nH]c3cccc(c32)[C@H]1O (single isomer, unassigned) [Example 76]
[1]
  pEC50: 8.70

## CC(CCn1cnc2ncccc21)N[C@@H]1CCn2c(=O)[nH]c3cccc(c32)[C@H]1O (single isomer, unassigned) [Example 77]
[1]
  pEC50: 8.55

## Cc1nc2ccccc2n1CCC(C)N[C@@H]1CCn2c(=O)[nH]c3cccc(c32)[C@H]1O (single isomer, unassigned) [Example 78]
[1]
  pEC50: 8.92

## CC(CCn1cnc2cc(F)c(F)cc21)N[C@@H]1CCn2c(=O)[nH]c3cccc(c32)[C@H]1O (single isomer, unassigned) [Example 79]
[1]
  pEC50: 9.00

## CC(Cc1c[nH]c2ccccc12)N[C@@H]1CCn2c(=O)[nH]c3cccc(c32)[C@H]1O (stereo partly drawn) [Example 68, (6R,7R)-7-hydroxy-6-{[2-(1H-indol-3-yl)-1-methylethyl]amino}-4,5,6,7-tetrahydroimidazo[4,5,1-jk][1]benzazepin-2(1H)-one]
[1]
  pEC50: 8.31
